# Data as given in ChEMBL document CHEMBL2406931, “The inhibitory effect of a synthetic compound, (Z)-5-(2,4-dihydroxybenzylidene) thiazolidine-2,4-dione (MHY498), on nitric oxide-induced melanogenesis” (2013).
# The source made the active and inactive calls. The rule behind the calls is not given here.
# Assays:
# [1] = test system: B16-F10; test: Inhibition of SNP-induced NO production in mouse B16F10 cells assessed as decrease of intracellular cGMP level at 16 uM incubated for 1 hr prior to SNP challenge measured after 30 mins by EIA relative to control; type: functional; conditions: values are per cent of control
# [2] = test system: B16-F10; test: Antimelanogenic activity in mouse B16F10 cells assessed as reduction of SNP-induced melanin level at 0.5 uM incubated for 1 hr prior to SNP challenge measured after 48 hrs (reference value: 282.59 +/- 47.06%); type: functional
# [3] = test system: B16-F10; test: Antimelanogenic activity in mouse B16F10 cells assessed as reduction in SNP-induced tyrosinase protein level by Western blotting analysis; type: functional, cell-based
# [4] = test system: B16-F10; test: Antimelanogenic activity in mouse B16F10 cells assessed as reduction in SNP-induced nuclear MITF level by Western blotting analysis; type: functional, cell-based
# [5] = test system: B16-F10; test: Inhibition of SNP-induced NO production in mouse B16F10 cells assessed as decrease of intracellular cGMP level at 0.5 uM incubated for 1 hr prior to SNP challenge measured after 30 mins by EIA relative to control; type: functional; conditions: values are per cent of control
# [6] = test system: B16-F10; test: Inhibition of SNP-induced NO production in mouse B16F10 cells assessed as decrease of intracellular cGMP level incubated for 1 hr prior to SNP challenge measured after 30 mins by EIA relative to control; type: functional, cell-based
# [7] = test system: B16-F10; test: Inhibition of SNP-induced NO production in mouse B16F10 cells assessed as decrease of intracellular cGMP level at 4 uM incubated for 1 hr prior to SNP challenge measured after 30 mins by EIA relative to control; type: functional; conditions: values are per cent of control
# [8] = test system: B16-F10; test: Inhibition of SNP-induced NO production in mouse B16F10 cells at 4 uM incubated 1 hr prior to SNP challenge measured after 48 hrs by Griess assay (reference value: 237.84 +/- 4.12%); values are per cent of control
# [9] = biological target: T1, Tyrosinase (Mus musculus) (UniProt P11344); test: Inhibition of tyrosinase in SNP-stimulated mouse B16F10 cells at 0.5 uM incubated for 1 hr prior to SNP challenge measured after 48 hrs (reference value: 198.83 +/- 11.46%); type: cell-based; conditions: B16-F10, values are per cent of control
# T1 sequence (whole entry): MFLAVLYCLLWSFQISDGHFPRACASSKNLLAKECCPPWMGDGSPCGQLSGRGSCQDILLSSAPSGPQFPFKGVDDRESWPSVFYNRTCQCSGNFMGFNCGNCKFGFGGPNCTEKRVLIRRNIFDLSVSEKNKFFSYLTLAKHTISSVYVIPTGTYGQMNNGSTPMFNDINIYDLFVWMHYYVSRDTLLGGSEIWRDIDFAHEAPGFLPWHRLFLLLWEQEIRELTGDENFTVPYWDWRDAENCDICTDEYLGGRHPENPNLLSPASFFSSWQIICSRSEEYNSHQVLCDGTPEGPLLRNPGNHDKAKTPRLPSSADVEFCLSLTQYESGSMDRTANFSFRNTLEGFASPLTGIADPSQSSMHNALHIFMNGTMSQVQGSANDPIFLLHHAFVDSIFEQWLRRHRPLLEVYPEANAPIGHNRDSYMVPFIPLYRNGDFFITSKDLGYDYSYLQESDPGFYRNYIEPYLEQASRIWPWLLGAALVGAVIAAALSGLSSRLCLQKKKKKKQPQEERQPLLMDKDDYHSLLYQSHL
# [10] = biological target: T1, Tyrosinase (Mus musculus); test: Inhibition of tyrosinase in SNP-stimulated mouse B16F10 cells at 4 uM incubated for 1 hr prior to SNP challenge measured after 48 hrs (reference value: 198.83 +/- 11.46%); type: cell-based; conditions: B16-F10, values are per cent of control
# [11] = test system: B16-F10; test: Inhibition of SNP-induced NO production in mouse B16F10 cells incubated 1 hr prior to SNP challenge measured after 48 hrs by Griess assay; type: functional, cell-based
# [12] = test system: B16-F10; test: Inhibition of SNP-induced NO production in mouse B16F10 cells at 16 uM incubated 1 hr prior to SNP challenge measured after 48 hrs by Griess assay (reference value: 237.84 +/- 4.12%); values are per cent of control
# [13] = biological target: T1, Tyrosinase (Mus musculus); test: Inhibition of tyrosinase in SNP-stimulated mouse B16F10 cells at 16 uM incubated for 1 hr prior to SNP challenge measured after 48 hrs (reference value: 198.83 +/- 11.46%); type: cell-based; conditions: B16-F10, values are per cent of control
# [14] = test system: B16-F10; test: Inhibition of SNP-induced NO production in mouse B16F10 cells at 0.5 uM incubated 1 hr prior to SNP challenge measured after 48 hrs by Griess assay (reference value: 237.84 +/- 4.12%); values are per cent of control
# [15] = test system: B16-F10; test: Antimelanogenic activity in mouse B16F10 cells assessed as reduction of SNP-induced melanin level at 16 uM incubated for 1 hr prior to SNP challenge measured after 48 hrs (reference value: 282.59 +/- 47.06%); type: functional
# [16] = test system: B16-F10; test: Antimelanogenic activity in mouse B16F10 cells assessed as reduction in SNP-induced phosphorylated CREB level at 16 uM by Western blotting analysis; type: functional, cell-based
# [17] = test system: B16-F10; test: Antimelanogenic activity in mouse B16F10 cells assessed as reduction in SNP-induced phosphorylated CREB level at 0.5 to 4 uM by Western blotting analysis; type: functional, cell-based
# [18] = test system: B16-F10; test: Antimelanogenic activity in mouse B16F10 cells assessed as reduction of SNP-induced melanin level at 4 uM incubated for 1 hr prior to SNP challenge measured after 48 hrs (reference value: 282.59 +/- 47.06%); type: functional
# [19] = test system: B16-F10; test: Antimelanogenic activity in mouse B16F10 cells assessed as reduction of SNP-induced melanin level incubated for 1 hr prior to SNP challenge measured after 48 hrs; type: functional, cell-based
# [20] = biological target: T1, Tyrosinase (Mus musculus); test: Inhibition of tyrosinase in mouse B16F10 cells at 30 uM incubated for 1 hr prior to SNP challenge measured after 48 hrs (reference value: 198.83 +/- 11.46%); type: cell-based; conditions: B16-F10
residual activity [9] [%],residual activity [10] [%],residual activity [13] [%],Compound,"response, % of control at 16 µM [1] [%]","level, % of control at 0.5 µM [2] [%]",inhibition [3],inhibition [4],"response, % of control at 0.5 µM [5] [%]",inhibition [6],"response, % of control at 4 µM [7] [%]","level, % of control at 4 µM [8] [%]",inhibition [11],"level, % of control at 16 µM [12] [%]","level, % of control at 0.5 µM [14] [%]","level, % of control at 16 µM [15] [%]",inhibition [16],inhibition [17],"level, % of control at 4 µM [18] [%]",inhibition [19],inhibition [20] [%]
84.8,60.5,31.8,O=C1NC(=O)/C(=C/c2ccc(O)cc2O)S1,83.1,151,Dose-dependent effect,Dose-dependent effect,177,Dose-dependent effect,154,183,Dose-dependent effect,172,200,100,Active,inactive,114,Dose-dependent effect,–
–,–,–,CC1(C)N([O])C(c2ccc(C(=O)O)cc2)=[N+]([O-])C1(C)C,153,–,–,–,–,–,–,–,–,206,–,173,Active,–,–,–,34.3
